Where two headings read alike, the source gives them in different places. Positions of bridges follow the written chain, without caps; N, C: chain ends. Residues, ends and D or L forms follow the SMILES beside them.
Tests used:
Experiment in all cases: cell-based
[1] = molecular target: hNav1.7 (Homo sapiens, UniProt Q15858); type: cell-based
[2] = molecular target: hNav1.5 (Homo sapiens, UniProt Q14524)
[3] = molecular target: hNav1.3 (Homo sapiens, UniProt Q9NY46); conditions: IonWorks Quattro, read-out: IWQ Use Nav1.3
Chain of hNav1.3 (Q9NY46 whole entry, looked up): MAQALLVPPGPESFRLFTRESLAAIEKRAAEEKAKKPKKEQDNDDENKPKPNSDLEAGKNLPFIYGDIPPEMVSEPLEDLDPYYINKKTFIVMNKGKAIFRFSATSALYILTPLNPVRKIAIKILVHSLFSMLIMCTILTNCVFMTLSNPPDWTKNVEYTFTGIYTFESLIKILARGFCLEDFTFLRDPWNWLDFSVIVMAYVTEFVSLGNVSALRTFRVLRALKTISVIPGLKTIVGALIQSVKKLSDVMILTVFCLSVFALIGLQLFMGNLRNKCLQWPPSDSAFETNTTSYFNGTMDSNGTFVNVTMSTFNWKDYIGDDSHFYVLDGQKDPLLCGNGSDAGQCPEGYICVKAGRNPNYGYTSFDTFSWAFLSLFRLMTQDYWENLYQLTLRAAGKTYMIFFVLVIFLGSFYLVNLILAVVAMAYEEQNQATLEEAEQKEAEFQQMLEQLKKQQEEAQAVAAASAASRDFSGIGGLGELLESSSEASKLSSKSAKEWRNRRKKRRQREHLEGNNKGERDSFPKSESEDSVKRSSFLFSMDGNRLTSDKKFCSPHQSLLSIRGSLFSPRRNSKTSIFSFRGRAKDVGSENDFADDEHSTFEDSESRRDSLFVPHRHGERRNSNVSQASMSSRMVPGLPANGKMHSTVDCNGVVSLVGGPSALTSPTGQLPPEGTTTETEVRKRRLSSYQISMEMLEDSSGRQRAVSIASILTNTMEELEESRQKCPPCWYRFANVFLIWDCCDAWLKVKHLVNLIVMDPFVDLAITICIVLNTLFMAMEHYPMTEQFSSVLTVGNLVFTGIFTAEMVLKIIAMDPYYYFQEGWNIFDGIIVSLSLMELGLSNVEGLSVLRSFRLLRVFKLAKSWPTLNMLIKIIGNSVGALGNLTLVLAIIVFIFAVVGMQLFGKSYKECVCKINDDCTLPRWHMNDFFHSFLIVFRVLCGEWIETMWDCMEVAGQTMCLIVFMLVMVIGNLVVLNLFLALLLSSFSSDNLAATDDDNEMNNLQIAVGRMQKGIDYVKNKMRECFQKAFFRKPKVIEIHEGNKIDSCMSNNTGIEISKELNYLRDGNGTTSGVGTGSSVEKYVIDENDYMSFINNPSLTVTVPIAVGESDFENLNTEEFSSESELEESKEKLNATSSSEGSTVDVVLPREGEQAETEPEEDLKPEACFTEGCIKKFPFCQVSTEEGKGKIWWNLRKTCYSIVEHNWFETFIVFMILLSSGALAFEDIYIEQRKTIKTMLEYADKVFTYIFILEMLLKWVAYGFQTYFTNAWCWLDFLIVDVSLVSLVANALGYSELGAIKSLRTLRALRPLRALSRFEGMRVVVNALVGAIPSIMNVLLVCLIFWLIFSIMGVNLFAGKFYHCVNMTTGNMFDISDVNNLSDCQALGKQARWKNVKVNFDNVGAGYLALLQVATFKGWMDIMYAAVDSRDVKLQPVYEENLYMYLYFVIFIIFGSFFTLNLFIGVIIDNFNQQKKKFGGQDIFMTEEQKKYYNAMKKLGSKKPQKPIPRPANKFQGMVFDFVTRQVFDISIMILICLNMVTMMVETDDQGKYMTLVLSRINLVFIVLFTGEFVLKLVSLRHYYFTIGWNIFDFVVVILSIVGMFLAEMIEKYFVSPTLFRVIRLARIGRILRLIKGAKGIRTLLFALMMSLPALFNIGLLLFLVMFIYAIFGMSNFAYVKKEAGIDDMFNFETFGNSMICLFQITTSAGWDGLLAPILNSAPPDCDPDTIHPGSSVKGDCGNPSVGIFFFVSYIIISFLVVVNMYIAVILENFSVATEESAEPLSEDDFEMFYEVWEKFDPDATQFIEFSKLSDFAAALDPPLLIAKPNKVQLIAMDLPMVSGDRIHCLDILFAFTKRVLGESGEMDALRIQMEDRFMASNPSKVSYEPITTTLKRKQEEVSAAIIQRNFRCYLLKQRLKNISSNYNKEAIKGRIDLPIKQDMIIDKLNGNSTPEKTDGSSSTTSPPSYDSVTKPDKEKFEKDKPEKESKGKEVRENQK

Chain of hNav1.5 (Q14524 whole entry, looked up): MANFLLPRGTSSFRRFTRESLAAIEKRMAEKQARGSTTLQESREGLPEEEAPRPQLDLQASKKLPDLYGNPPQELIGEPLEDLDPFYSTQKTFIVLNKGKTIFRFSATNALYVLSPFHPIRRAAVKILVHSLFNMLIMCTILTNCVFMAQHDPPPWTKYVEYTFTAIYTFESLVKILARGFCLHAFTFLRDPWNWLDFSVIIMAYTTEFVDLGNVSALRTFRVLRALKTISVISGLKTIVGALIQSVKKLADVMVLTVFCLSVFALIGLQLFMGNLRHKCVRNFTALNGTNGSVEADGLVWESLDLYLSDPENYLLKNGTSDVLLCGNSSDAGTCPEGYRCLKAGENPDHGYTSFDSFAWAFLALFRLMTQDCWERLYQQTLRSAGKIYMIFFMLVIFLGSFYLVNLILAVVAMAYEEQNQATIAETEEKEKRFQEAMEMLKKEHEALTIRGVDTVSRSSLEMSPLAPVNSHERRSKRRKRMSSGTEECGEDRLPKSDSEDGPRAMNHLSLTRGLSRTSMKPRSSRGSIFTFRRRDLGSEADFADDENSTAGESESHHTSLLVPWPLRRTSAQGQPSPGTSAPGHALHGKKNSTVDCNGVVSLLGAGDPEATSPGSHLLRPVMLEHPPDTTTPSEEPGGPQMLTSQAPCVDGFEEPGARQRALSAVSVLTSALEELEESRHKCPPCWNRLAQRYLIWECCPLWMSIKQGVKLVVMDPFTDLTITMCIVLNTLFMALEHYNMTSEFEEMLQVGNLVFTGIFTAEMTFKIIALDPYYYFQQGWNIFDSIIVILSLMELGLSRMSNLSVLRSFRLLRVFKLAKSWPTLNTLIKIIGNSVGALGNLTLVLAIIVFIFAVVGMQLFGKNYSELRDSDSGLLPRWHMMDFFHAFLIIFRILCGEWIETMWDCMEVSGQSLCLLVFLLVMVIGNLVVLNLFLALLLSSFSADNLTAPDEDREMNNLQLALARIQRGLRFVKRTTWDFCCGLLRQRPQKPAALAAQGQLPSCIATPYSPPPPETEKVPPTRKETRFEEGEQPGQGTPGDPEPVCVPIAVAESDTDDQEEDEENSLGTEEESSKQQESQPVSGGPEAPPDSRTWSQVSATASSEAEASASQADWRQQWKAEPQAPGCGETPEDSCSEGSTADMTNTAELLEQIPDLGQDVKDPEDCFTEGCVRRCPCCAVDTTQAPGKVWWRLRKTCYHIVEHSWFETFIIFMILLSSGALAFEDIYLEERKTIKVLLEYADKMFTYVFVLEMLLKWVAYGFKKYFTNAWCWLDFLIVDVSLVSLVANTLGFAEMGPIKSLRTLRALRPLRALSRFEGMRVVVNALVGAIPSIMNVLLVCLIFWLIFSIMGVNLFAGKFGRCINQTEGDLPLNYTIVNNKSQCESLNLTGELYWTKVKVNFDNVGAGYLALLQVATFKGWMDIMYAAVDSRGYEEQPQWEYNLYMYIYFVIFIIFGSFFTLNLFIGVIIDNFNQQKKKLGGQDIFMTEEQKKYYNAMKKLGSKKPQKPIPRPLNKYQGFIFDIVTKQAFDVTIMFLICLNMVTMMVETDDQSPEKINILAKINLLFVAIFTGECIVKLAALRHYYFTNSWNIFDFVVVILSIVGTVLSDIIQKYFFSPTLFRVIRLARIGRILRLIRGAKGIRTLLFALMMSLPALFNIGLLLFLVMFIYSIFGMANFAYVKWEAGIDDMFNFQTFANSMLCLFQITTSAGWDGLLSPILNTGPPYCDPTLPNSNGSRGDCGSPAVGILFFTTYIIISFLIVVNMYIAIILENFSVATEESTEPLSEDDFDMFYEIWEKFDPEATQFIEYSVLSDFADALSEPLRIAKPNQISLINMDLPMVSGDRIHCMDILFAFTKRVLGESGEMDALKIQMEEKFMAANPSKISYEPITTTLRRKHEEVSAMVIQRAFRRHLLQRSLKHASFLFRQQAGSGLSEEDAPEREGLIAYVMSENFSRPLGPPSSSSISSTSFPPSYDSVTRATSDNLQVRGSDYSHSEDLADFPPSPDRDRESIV

CC[C@H](C)[C@@H]1NC(=O)[C@@H]2CSSC[C@@H]3NC(=O)[C@H](C(C)C)NC(=O)[C@H](Cc4c[nH]c5ccccc45)NC(=O)[C@H](CC(N)=O)NC(=O)[C@@H]4CCCN4C(=O)[C@H](CCCNC(=N)N)NC(=O)[C@H](CSSC[C@H](NC(=O)[C@@H](N)CC(=O)O)C(=O)N[C@@H](CC(C)C)C(=O)NCC(=O)N[C@@H](Cc4ccccc4)C(=O)N[C@@H](CCSC)C(=O)N[C@@H](CCCNC(=N)N)C(=O)N[C@@H](CCCCN)C(=O)N2)NC(=O)[C@H](CSSC[C@@H](C(=O)N[C@@H](CCCCN)C(=O)N[C@@H](Cc2ccc(O)cc2)C(=O)N[C@H](C(=O)N[C@@H](Cc2ccccc2)C(N)=O)C(C)C)NC(=O)[C@H](Cc2c[nH]c4ccccc24)NC(=O)[C@H](CCCCN)NC(=O)[C@H](Cc2cnc[nH]2)NC(=O)[C@H]([C@@H](C)O)NC(=O)[C@H](CCCNC(=N)N)NC(=O)[C@H](CO)NC3=O)NC(=O)[C@H](CCCCN)NC(=O)[C@H](CC(=O)O)NC(=O)[C@H](CC(N)=O)NC(=O)[C@H](CC(=O)O)NC(=O)[C@@H]2CCCN2C1=O [compound 176] (H-DCLGFMRKCIPDNDKCCRPNWVCSRTHKWCKYVF-NH2; disulfide 2-17, 9-23, 16-30) showed an IC50 [1] of 100 nM, an IC50 ([2]; IWQ Use Nav1.5 (μM)) of 13.8 µM and an IC50 ([3]; Use) of 50 nM.
CC[C@H](C)[C@@H]1NC(=O)[C@@H]2CSSC[C@@H]3NC(=O)[C@H](Cc4c[nH]c5ccccc45)NC(=O)[C@H](CC(C)C)NC(=O)[C@H](CC(N)=O)NC(=O)[C@@H]4CCCN4C(=O)[C@H](CCCNC(=N)N)NC(=O)[C@H](CSSC[C@H](NC(=O)[C@@H](N)CC(=O)O)C(=O)N[C@@H](CC(C)C)C(=O)NCC(=O)N[C@@H](Cc4ccccc4)C(=O)N[C@@H](CCSC)C(=O)N[C@@H](CCCNC(=N)N)C(=O)N[C@@H](CCCCN)C(=O)N2)NC(=O)[C@H](CSSC[C@@H](C(=O)N[C@@H](CCCCN)C(=O)N[C@@H](Cc2ccc(O)cc2)C(=O)N[C@H](C(=O)N[C@@H](Cc2ccccc2)C(N)=O)C(C)C)NC(=O)[C@H](Cc2c[nH]c4ccccc24)NC(=O)[C@H](CCCCN)NC(=O)[C@H](Cc2cnc[nH]2)NC(=O)[C@H]([C@@H](C)O)NC(=O)[C@H](CCCNC(=N)N)NC(=O)[C@H](CO)NC3=O)NC(=O)[C@H](CCCCN)NC(=O)[C@H](CC(=O)O)NC(=O)[C@H](CC(N)=O)NC(=O)[C@H](CC(=O)O)NC(=O)[C@@H]2CCCN2C1=O [compound 177] (H-DCLGFMRKCIPDNDKCCRPNLWCSRTHKWCKYVF-NH2; disulfide 2-17, 9-23, 16-30) gave an IC50 [1] of 30 nM, an IC50 ([2]; IWQ Use Nav1.5 (μM)) of 8.02 µM and an IC50 ([3]; Use) of 60 nM.
For CC[C@H](C)[C@@H]1NC(=O)[C@@H]2CSSC[C@@H]3NC(=O)[C@H](C(C)C)NC(=O)[C@H](CC(C)C)NC(=O)[C@H](CC(N)=O)NC(=O)[C@@H]4CCCN4C(=O)[C@H](CCCNC(=N)N)NC(=O)[C@H](CSSC[C@H](NC(=O)[C@@H](N)CC(=O)O)C(=O)N[C@@H](CC(C)C)C(=O)NCC(=O)N[C@@H](Cc4ccccc4)C(=O)N[C@@H](CCSC)C(=O)N[C@@H](CCCNC(=N)N)C(=O)N[C@@H](CCCCN)C(=O)N2)NC(=O)[C@H](CSSC[C@@H](C(=O)N[C@@H](CCCCN)C(=O)N[C@@H](Cc2ccc(O)cc2)C(=O)N[C@H](C(=O)N[C@@H](Cc2ccccc2)C(N)=O)C(C)C)NC(=O)[C@H](Cc2c[nH]c4ccccc24)NC(=O)[C@H](CCCCN)NC(=O)[C@H](Cc2cnc[nH]2)NC(=O)[C@H](Cc2c[nH]c4ccccc24)NC(=O)[C@H](CCCNC(=N)N)NC(=O)[C@H](CO)NC3=O)NC(=O)[C@H](CCCCN)NC(=O)[C@H](CC(=O)O)NC(=O)[C@H](CC(N)=O)NC(=O)[C@H](CC(=O)O)NC(=O)[C@@H]2CCCN2C1=O [compound 178] (H-DCLGFMRKCIPDNDKCCRPNLVCSRWHKWCKYVF-NH2; disulfide 2-17, 9-23, 16-30), the IC50 ([1]; Table 22, IonWorks Quattro, use, […], read-out: IWQ Use Nav1.7) was 30 nM, the IC50 ([2]; Table 22, IonWorks Quattro, use, […], read-out: IWQ Use Nav1.5) was 5.84 µM and the IC50 ([3]; Table 22, use, […]) was 20 nM.
For CC[C@H](C)[C@@H]1NC(=O)[C@@H]2CSSC[C@@H]3NC(=O)[C@H](C(C)C)NC(=O)[C@H](CC(C)C)NC(=O)[C@H](CC(N)=O)NC(=O)[C@@H]4CCCN4C(=O)[C@H](CCCNC(=N)N)NC(=O)[C@H](CSSC[C@H](NC(=O)[C@@H](N)CC(=O)O)C(=O)N[C@@H](CC(C)C)C(=O)NCC(=O)N[C@@H](Cc4ccccc4)C(=O)N[C@@H](CCSC)C(=O)N[C@@H](CCCNC(=N)N)C(=O)N[C@@H](CCCCN)C(=O)N2)NC(=O)[C@H](CSSC[C@@H](C(=O)N[C@@H](Cc2c[nH]c4ccccc24)C(=O)N[C@@H](Cc2ccc(O)cc2)C(=O)N[C@H](C(=O)N[C@@H](Cc2ccccc2)C(N)=O)C(C)C)NC(=O)[C@H](Cc2c[nH]c4ccccc24)NC(=O)[C@H](CCCCN)NC(=O)[C@H](Cc2c[nH]cn2)NC(=O)[C@H]([C@@H](C)O)NC(=O)[C@H](CCCNC(=N)N)NC(=O)[C@H](CO)NC3=O)NC(=O)[C@H](CCCCN)NC(=O)[C@H](CC(=O)O)NC(=O)[C@H](CC(N)=O)NC(=O)[C@H](CC(=O)O)NC(=O)[C@@H]2CCCN2C1=O [compound 179] (H-DCLGFMRKCIPDNDKCCRPNLVCSRTHKWCWYVF-NH2; disulfide 2-17, 9-23, 16-30), the IC50 ([1]; Table 25, IonWorks Quattro, use, […], read-out: IWQ Use Nav1.7) was 23600 nM, the IC50 ([2]; Table 25, IonWorks Quattro, use, […], read-out: IWQ Use Nav1.5) was 10.8 µM and the IC50 ([3]; Table 25, use, […]) was 10200 nM.
CC[C@H](C)[C@@H]1NC(=O)[C@@H]2CSSC[C@@H]3NC(=O)[C@H](C(C)C)NC(=O)[C@H](CC(C)C)NC(=O)[C@H](CC(N)=O)NC(=O)[C@@H]4CCCN4C(=O)[C@H](CCCNC(=N)N)NC(=O)[C@H](CSSC[C@H](NC(=O)[C@@H](N)CC(=O)O)C(=O)N[C@@H](CC(C)C)C(=O)NCC(=O)N[C@@H](Cc4ccccc4)C(=O)N[C@@H](CCSC)C(=O)N[C@@H](CCCNC(=N)N)C(=O)N[C@@H](CCCCN)C(=O)N2)NC(=O)[C@H](CSSC[C@@H](C(=O)N[C@@H](CCCCN)C(=O)N[C@@H](Cc2ccc(O)cc2)C(=O)N[C@@H](Cc2c[nH]c4ccccc24)C(=O)N[C@@H](Cc2ccccc2)C(N)=O)NC(=O)[C@H](Cc2c[nH]c4ccccc24)NC(=O)[C@H](CCCCN)NC(=O)[C@H](Cc2c[nH]cn2)NC(=O)[C@H]([C@@H](C)O)NC(=O)[C@H](CCCNC(=N)N)NC(=O)[C@H](CO)NC3=O)NC(=O)[C@H](CCCCN)NC(=O)[C@H](CC(=O)O)NC(=O)[C@H](CC(N)=O)NC(=O)[C@H](CC(=O)O)NC(=O)[C@@H]2CCCN2C1=O [compound 180] (H-DCLGFMRKCIPDNDKCCRPNLVCSRTHKWCKYWF-NH2; disulfide 2-17, 9-23, 16-30) was tested, and the IC50 ([1]; Table 26, IonWorks Quattro, use, […], read-out: IWQ Use Nav1.7) was 50 nM, the IC50 ([2]; Table 26, IonWorks Quattro, use, […], read-out: IWQ Use Nav1.5) was 9.06 µM and the IC50 ([3]; Table 26, use, […]) was 9 nM.
With CC[C@H](C)[C@@H]1NC(=O)[C@@H]2CSSC[C@@H]3NC(=O)[C@H](C(C)C)NC(=O)[C@H](CC(C)C)NC(=O)[C@H](CC(N)=O)NC(=O)[C@H](CO)NC(=O)[C@H](CCCNC(=N)N)NC(=O)[C@H](CSSC[C@H](NC(=O)[C@@H](N)CC(=O)O)C(=O)N[C@@H](CC(C)C)C(=O)NCC(=O)N[C@@H](Cc4ccccc4)C(=O)N[C@@H](CCSC)C(=O)N[C@@H](CCCNC(=N)N)C(=O)N[C@@H](CCCCN)C(=O)N2)NC(=O)[C@H](CSSC[C@@H](C(=O)N[C@@H](CCCCN)C(=O)N[C@@H](Cc2ccc(O)cc2)C(=O)N[C@H](C(=O)N[C@@H](Cc2ccccc2)C(N)=O)C(C)C)NC(=O)[C@H](Cc2c[nH]c4ccccc24)NC(=O)[C@H](CCCCN)NC(=O)[C@H](Cc2c[nH]cn2)NC(=O)[C@H]([C@@H](C)O)NC(=O)[C@H](CCCNC(=N)N)NC(=O)[C@H](CO)NC3=O)NC(=O)[C@H](CCCCN)NC(=O)[C@H](CC(=O)O)NC(=O)[C@H](CC(N)=O)NC(=O)[C@H](CC(=O)O)NC(=O)[C@@H]2CCCN2C1=O [compound 181] (H-DCLGFMRKCIPDNDKCCRSNLVCSRTHKWCKYVF-NH2; disulfide 2-17, 9-23, 16-30) the IC50 ([1]; IonWorks Quattro, Use, read-out: IWQ Use Nav1.7) was 88 nM, the IC50 ([2]; IonWorks Quattro, Use, read-out: IWQ Use Nav1.5) was 11.4 µM and the IC50 ([3]; Use) was 31 nM.

— US9340590B2 (priority 2011, dated 2016)
